Data on four compounds can be found in paper PMC5909177 (Bioconjugate Chemistry, 2018).

In test [1] the target is Gal-3. The conditions noted are these: for Gal-3; cited from earlier work.
The target in the next test is Gal-1. The conditions noted are these: for Gal-1; cited from earlier work.
The target in test [2] is Gal-3 (Homo sapiens, UniProt P17931). Put plainly: competitive inhibition of Gal-3 binding to immobilized asialofetuin. The conditions noted are these: negative control.
Sequence of Gal-3 (Homo sapiens, UniProt P17931) (P17931 whole entry): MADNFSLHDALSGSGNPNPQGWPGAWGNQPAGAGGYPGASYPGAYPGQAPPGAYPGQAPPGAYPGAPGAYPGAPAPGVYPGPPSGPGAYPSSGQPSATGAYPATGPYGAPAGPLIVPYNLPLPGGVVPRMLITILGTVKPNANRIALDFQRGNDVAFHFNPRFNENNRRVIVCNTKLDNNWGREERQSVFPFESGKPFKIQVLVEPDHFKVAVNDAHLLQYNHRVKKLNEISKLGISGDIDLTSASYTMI

Usually Kd stands for a measure of binding affinity in units of concentration. With `OC[C@H]1O[C@@H](S[C@@H]2O[C@H](CO)[C@H](O)[C@H](O)[C@H]2O)[C@H](O)[C@@H](O)[C@H]1O` [TDG, thiodigalactoside], the Kd at Gal-3 [1] is 49 µM; at Gal-1 it was 24 µM.
Consider `CO[C@@H]1O[C@H](CO)[C@@H](O[C@@H]2O[C@H](CO)[C@H](O)[C@H](O)[C@H]2O)[C@H](O)[C@H]1O` [methyl β-lactoside], for which the Kd was 220 µM on Gal-3 [1] and 190 µM on Gal-1.
Take `CO[C@@H]1O[C@H](CO)[C@@H](O[C@@H]2O[C@H](CO)[C@H](O)[C@H](O)[C@H]2O)[C@H](O)[C@H]1NC(C)=O` [methyl β-LacNAc]: on Gal-3 [1], the Kd was 67 µM.
As for bovine serum albumin [Nonmodified BSA], the “interference with Gal-3 binding to ASF” value with Gal-3 [2] is listed as “not interfering with Gal-3 binding to ASF”.
